Columns and labels:
[1] = tested on: U87 human glioma cells; experiment: MTT cytotoxicity assay, U87 glioma cells; settings: U87; result in words
Source text: In vitro efficacy of the present composition can be determined using methods well known in the art. For example, the cytoxicity of the present monoterpene (or sesquiterpene) and/or the therapeutic agents may be studied by MTT [3-(4,5-dimethylthiazol-2-yl)-2,5-diphenyl tetrazolium bromide] cytotoxicity assay. MTT assay is based on the principle of uptake of MTT, a tetrazolium salt, by metabolically active cells where it is metabolized into a blue colored formazon product, which can be read spectrometrically. J. of Immunological Methods 65: 55 63, 1983. The cytoxicity of the present monoterpene (or sesquiterpene) derivative and/or the therapeutic agents may be studied by colony formation assay. Functional assays for inhibition of VEGF secretion and IL-8 secretion may be performed via ELISA. Cell cycle block by the present monoterpene (or sesquiterpene) derivative and/or the therapeutic agents may be studied by standard propidium iodide (PI) staining and flow cytometry. Invasion inhibition may be studied by Boyden chambers. In this assay a layer of reconstituted basement membrane, Matrigel, is coated onto chemotaxis filters and acts as a barrier to the migration of cells in the Boyden chambers. Only cells with invasive capacity can cross the Matrigel barrier. Other assays include, but are not limited to cell viability assays, apoptosis assays, and morphological assays.
First cytotoxicity assays were carried out after cells were treated with dimethyl-celecoxib (DMC) alone.
Then U87, A172 and U251 cells were treated with dimethyl celecoxib bisPOH carbamate (POH−DMC) (e.g., synthesized by the method in Example 1), and the MTT cytotoxicity assays performed (FIG. 2).
First cytotoxicity assays were carried out after cells were treated with temozolomide (TMZ) alone, the standard alkylating agent used in the treatment of malignant gliomas.
Then TMZ-resistant glioma cell lines U87, A172 and U251 cells were treated with TMZ-POH (e.g., synthesized by the method in Example 3).
To compare the cytotoxicity of Rolipram POH Carbamate (POH-Rolipram) (e.g., synthesized by the method in Example 5) with rolipram, […] inducing differentiation and apoptosis in glioma cells, A172, U87, U251 and LN229 human glioma cells were treated with either POH-Rolipram or rolipram for 48 hours.

[2] = tested on: USC-02 glioma cancer stem cells; experiment: MTT cytotoxicity assay, USC-02 glioma cancer stem cells; format: cell-based
Source text: Cancer Lett. 2011 Mar. 28; 302(2):100-8.

[3] = tested on: MDA-MB-231-br; experiment: Colony formation assay, MDA-MB-231-br; format: cell-based, human; settings: for IC50: Homo sapiens, 48 h, read-out: IC50 (concentration required to decrease colony formation by 50%)
Procedure: (§1) Depending on the cell line (and plating efficiency), 200-350 cells were seeded into each well of a 6-well plate. […] Thereafter, the drugs were removed, fresh growth medium was added, and the cells were kept in culture undisturbed for 12-16 days, during which time the surviving cells spawned colonies of descendants. Colonies (defined as groups of >50 cells) were visualized by staining for 4 hours with 1% methylene blue (in methanol), and then were counted.
(§2) The cytotoxic potency of TMZ-POH, was analyzed by colony formation assay (CFA) in a variety of human breast cancer cell lines and compared to the cytotoxicity of TMZ. We used estrogen receptor positive cells MCF7 and T47D, the triple-negative lines MDA-MB-231, MDA-MB-468, and HCC-1937, and a brain-seeking variant of the 231 cell line, MDA-MB-231-br.

[4] = tested on: MDA-MB-231; experiment: cells; settings: for reduction of colony formation: 10 μM (each), 48 hours; for IC50: Homo sapiens, MDA-MB-231, 48 h, read-out: IC50 (concentration required to decrease colony formation by 50%)
Procedure: as §1
(§3) In the case of O6-BG treatment, cells were pretreated with 10 μM O6-BG for one hour before addition of TMZ or TMZ-POH. After 24 hours, another 10 μM O6-BG was added to the medium. Another 24 hours later, drug-laced medium was removed, and fresh medium without drugs was added. Thereafter, cells remained undisturbed until staining with methylene blue.
as §2
Thus, we tested whether simply mixing the two compounds TMZ and POH could mimic the effects of the TMZ-POH conjugate. MDA-MB-231 cells were treated with the individual compounds (TMZ-POH, TMZ or POH) alone, or with an equimolar mix of TMZ plus POH, and cell survival was analyzed by CFA.

[5] = tested on: T47D; experiment: Colony formation assay, T47D; format: cell-based, human; settings: for IC50: Homo sapiens, 48 h, read-out: IC50 (concentration required to decrease colony formation by 50%)
Procedure: as §1, §2

[6] = tested on: HCC-1937; experiment: Colony formation assay, HCC-1937; format: cell-based, human; settings: for IC50: Homo sapiens, HCC1937, 48 h, read-out: IC50 (concentration required to decrease colony formation by 50%)
Procedure: as §1, §2

[7] = tested on: MCF7; experiment: Colony formation assay, MCF7; settings: for IC50: Homo sapiens, MCF7, 48 h, read-out: IC50 (concentration required to decrease colony formation by 50%)
Procedure: as §1, §3, §2

[8] = tested on: 231-MGMT-1; experiment: Colony formation assay, MGMT-transfected 231-MGMT-1; format: cell-based, human; settings: for IC50: Homo sapiens, 48 h, read-out: IC50 (concentration required to decrease colony formation by 50%)
Procedure: as §1, §3
(§4) MDA-MB-231 cells were co-transfected in 6-well plates with the use of Lipofectamine 2000 (Invitrogen, Carlsbad, Calif.) according to manufacturer's instructions. 2 μg pSV2MGMT (containing the human MGMT cDNA) was combined with 0.2 μg pSV2neo (containing the neomycin gene for selection of cells in G418). Both plasmids were provided by Bernd Kaina (Mainz, Germany). Individual clones of transfected cells were selected in medium containing 750 μg/mL G418 and propagated in 250 μg/mL G418. G418 was obtained as G418 disulfate salt from Sigma-Aldrich and dissolved in PBS at 75 mg/mL. Selection medium was removed from cells several days before experimental drug treatment.
(§5) To investigate the latter, we stably transfected MGMT-negative MDA-MB-231 cells with MGMT cDNA and isolated individual clones. […] Both clones were treated with increasing concentrations of TMZ-POH and TMZ and analyzed by CFA.

[9] = tested on: 231-MGMT-2; experiment: Colony formation assay, MGMT-transfected 231-MGMT-2; format: cell-based, human; settings: for IC50: Homo sapiens, 48 h, read-out: IC50 (concentration required to decrease colony formation by 50%)
Procedure: as §1, §3, §4, §5

[10] = low micromolar concentrations, 48 hours, in words

Structure (SMILES)	cytotoxicity (MTT assay) [1]	IC50 [3] [µM]	reduction of colony formation ([4]; MDA-MB-231)	IC50 [4] [µM]	IC50 ([5]; T47D) [µM]	IC50 [6] [µM]	IC50 [7] [µM]	IC50 [8] [µM]	IC50 [9] [µM]	further results
Cn1nnc2c(C(N)=O)ncn2c1=O [TMZ, temozolomide, reference compound]	minimal cytotoxicity	3.8	about 50%	9.9	20	186	513	202	212	cytotoxicity (MTT assay) ([2]; TMZ 0-400 uM, POH 0-2 mM, in words): did not induce significant cytotoxicity
C=C(C)[C@@H]1CC=C(COC(=O)NC(=O)c2ncn3c(=O)n(C)nnc23)CC1 [TMZ-POH]	substantially higher kill rates	1.2	about 95%	2.3	4.6	31	33	27	34	IC50 ([2]; read-out: cytotoxicity with 1050): 60 µM; Differential (−fold) ([3]; fold increase in potency of TMZ-POH compared to TMZ, MDA-MB-231-br): 3.2 −fold; colony formation (CFA) [3, 10]: prevented colony formation; Differential (−fold) ([4]; fold increase in potency of TMZ-POH compared to TMZ, MDA-MB-231): 4.3 −fold; Differential (−fold) ([5]; fold increase in potency of TMZ-POH compared to TMZ, T47D): 4.3 −fold; colony formation (CFA) [5, 10]: prevented colony formation; Differential (−fold) ([6]; fold increase in potency of TMZ-POH compared to TMZ, HCC-1937): 6.0 −fold; colony formation (CFA) [6, 10]: prevented colony formation; Differential (−fold) ([7]; fold increase in potency of TMZ-POH compared to TMZ, MCF7): 15.5 −fold; colony formation (CFA) [7, 10]: prevented colony formation; Differential (−fold) ([8]; fold increase in potency of TMZ-POH compared to TMZ, 231-MGMT-1): 7.5 −fold; Differential (−fold) ([9]; fold increase in potency of TMZ-POH compared to TMZ, 231-MGMT-2): 6.2 −fold

From patent publication US9913838B2, “Methods of treating cancer using compositions comprising perillyl alcohol derivative” (NEONC TECHNOLOGIES INC., priority 2010, dated 2018)
